The test system of one data set is EOC-20 cells. How it is done:
(§1) Lower IC50 values indicate improved efficacy. FIG. 2 illustrates the principle of the measurement using NDGA as an example test agent. In order to determine viability, cell culture medium was replaced with phenol-free DMEM (Gibco) containing 20 μL/mL of MTT viability reagent (Promega). […] Control cells were taken to indicate 100% viability and intermediate values of MTT reduction were scaled to percentage of control. For each compound, an LD50 value was determined by extrapolation through sublethal concentrations. This value represents the concentration that reduced the MTT viability parameter by 50%.

In data set [1] the test system is TNFα-Stimulated NO2^− Production in EOC-20 Cells. Put plainly: TNFα-stimulated nitrite (NO2−) production in EOC-20 microglial cells, Griess assay. The class given is cell-based, mouse. Here is the method: Cells were cultured in 24 well plates until confluent then treated with test agent, which was dissolved at 100× final concentration in dimethylsulfoxide (DMSO), or with vehicle only. Thirty minutes after treatment with test agent, cells were treated with 10 ng/mL recombinant mouse TNFα (Pharmingen, San Diego, Calif. USA). […] Each compound was tested at 100 μM, 20 μM, 4 μM, 0.8 μM and 0 μM in the presence of TNFα. Four wells of cells were used for each concentration of test agent.
as §1

The next data set has as its system rats. As to conditions: rat, in vivo, po; cited from earlier work.
For a further data set, the system named is G93A-SOD1 mice. Description: Immunochemistry of lumbar spinal cord of G93A-SOD1 mice on oral NDGA (GFAP, F4/80). The class given is in vivo, mouse. Here is the method: Mice were anesthetized with pentobarbital and perfused transcardially with 4% paraformaldehyde in phosphate buffer. The lumbar region (L1-L5) was processed for paraffin embedding. Immunochemistry was performed on […] sections, using commercially available antibodies, and tissue sections were routinely counterstained with hematoxylin and eosin. Polyclonal anti-SOD1 IgG was purchased from Chemicon (Temecula, Calif.). Polyclonal anti-5LOX IgG was purchased from Cayman Chemical (San Diego, Calif.). Monoclonal anti-5LOX was obtained from Transduction Laboratories (Lexington, Ky.). Polyclonal antibody against glial fibrillary acidic protein (GFAP) was purchased from Research Diagnostics International (Flanders, N.J.). FITC-conjugated anti-F4/80, which recognizes a microglial cell surface antigen (Drachman et al., 2002), was purchased from Serotec (Raleigh, N.C.). Positive control for 5LOX Western blots was SL-29 fibroblast lysate (Transduction Laboratories, provided with the antibody). Electrophoresis was performed on 4-20% gradient polyacrylamide gels, and bands were visualized with chemiluminescence detection reagents (Amersham).
Microglial proliferation is another neuroinflammatory feature inherent to motoneuron disease in the G93A-SOD1 mouse (Drachman et al., 2002). […]

A further data set relates to LnCAP Production of PSA. Put plainly: LnCAP production of PSA (ELISA). The class given is cell-based. As to conditions: Homo sapiens, LNCaP, 24 h. How it is done:
LnCAP prostate cancer cells were be cultured according to established methods (Horoszewicz et al., 1983). These cells product prostate-specific antigen (PSA), a serine protease that predicts metastatic potential ([…] et al., 2000). […] Each drug was tested in triplicate at each concentration. Medium was removed and tested for PSA concentration using a commercially available enzyme-linked immunosorbent assay (ELISA). Viability was determined in the adherent cells using the MTT assay.
(In an ELISA, binding on a coated surface is turned into a signal by an enzyme label.)

For the next data set, the system named is Aβ-induced neurotoxicity. Description: Rat model of Aβ-induced neurotoxicity (ICV Aβ40 + Aβ42 + ApoE4), radial eight-arm maze. The class given is in vivo, Sprague-Dawley male rats. As to conditions: 0.25% NDGA diet. An excerpt:
In this model, rats are infused intracerebroventricularly (ICV) with Aβ adsorbed to an apo-lipoprotein carrier. Thus, to determine whether dicatechol (e.g., microglial inhibitor nordihydroguaiaretic acid) blocks Aβ-induced neurotoxicity the Frautschy model was used. […] Each group consisted of six rats fed either a control or an NDGA supplemented diet (Table VII).
Rats were trained on a radial eight-arm maze as described previously. After they achieved 0-2 error level, they underwent surgery for implantation of the cannulae and osmotic pumps. Twenty-four hours after surgery, they were started on the dietary treatment.
Time and error scores from six trials for each experimental group were subjected to analysis of variance (ANOVA). Tucky-Kramer test for multiple comparisons was used as a posthoc test. Performance in the memory task was analyzed separately over all six trials.

The subject of data set [2] is prostaglandin E2 (PGE2) release in TNFα-stimulated EOC-20 cells. Put plainly: PGE2 release in TNFα-stimulated EOC-20 cells. Format: cell-based, mouse. As to conditions: submicromolar concentrations. From the text: Prostaglandin E2, a product of the cyclooxygenation of arachidonic acid released from membrane phospholipids, plays major roles in regulating brain injury and inflammation. Although prostaglandin E2 has frequently been considered as a possible inducer of brain damage and degeneration, it may exert beneficial effects in the CNS. Indeed, in spite of its classic role as a pro-inflammatory molecule, several recent in vitro observations indicate that prostaglandin E2 can inhibit microglial activation.

“Also recorded” adds a separate entry of the source.

As to `C[C@H](Cc1ccc(O)c(O)c1)[C@@H](C)Cc1ccc(O)c(O)c1` [NDGA, 1,4-bis (3,4-Dihydroxyphenyl)-2,3-dimethylbutane], in the data set with EOC-20 cells, the “toxicity at 100 μM” value is given as “no toxicity”. Further, the “NO2− suppression at 800 nM” value in data set [1] (800 nM) is listed as “Significant NO2^− suppression”. Further, the concentration for half-maximal inhibition (IC50) (in general, the concentration that gives 50% inhibition) in data set [1] (Mus musculus, read-out: IC50) is 3 to 5 µM; with LnCAP Production of PSA it was 15 µM. In addition, the “potency relative to minocycline” value in data set [1] (fold more potent than minocycline) was “approximately 16 times”. Further, in the data set on rats, the LD50 result is “more than 2000 mg/kg”. Also, in the data set with G93A-SOD1 mice (120 D of age), the “F4/80-positive microglia, lumbar spinal cord” value was “diminished the number of F4/80-positive microglia”. In the data set with G93A-SOD1 mice (120 D old mice), the “astrogliosis (GFAP-positive astrocytes), lumbar spinal cord” value is recorded as “significantly diminished astrogliosis; also recorded: significantly decreased the number of GFAP-positive astrocytes”. For the same molecule, in the data set on Aβ-induced neurotoxicity (day 25), the “working memory errors and latency” value was “significant decrease in the number of working memory errors and latency”. The reference errors entry in the data set with Aβ-induced neurotoxicity (day 25 and day 30, not significant) is reported as “suppressed reference errors”. For the same molecule, the entries for the “inhibition of prostaglandin E2 (PGE2) release” value in data set [2] and in data set [2] (listed as NGDA) were “effective at submicromolar concentrations” and “effectively inhibits prostaglandin E2 (PGE2)”, respectively.

These data come from patent US20040014721A1, “Method for using tethered bis(polyhydroxyphenyls) and O-alkyl derivatives thereof in treating inflammatory conditions of the central nervous system” (Oklahoma Medical Research Foundation, priority 2002, published 2004).
